# Tests used:
# [1] = test system: Other Streptococcus species; experiment: MIC against intestinal bacteria: other Streptococcus species; assay type: cell-based; conditions: Other Streptococcus species (9)
# Procedure: (§1) The in vitro activity of OPT-80 against intestinal bacteria was evaluated. The experimental procedure for which is outlined in Antimicrobial Agents and Chemotherapy, 2004, 48: 4898-4902, which is hereby incorporated by reference in its entirety.
# (§2) Antimicrobial concentration ranges were selected to encompass or surpass the levels that would be achieved in the gut (to the extent that this information is available), subject to the limitations of solubility of the drugs in the testing medium. The range of concentration of OPT-80 used during testing was 0.03 μg/ml to 1024 μg/ml.
# (§3) For analysis, the bacteria tested were generally placed into genus, species, or other groups with at least 10 isolates. The ranges and the MICs at which 50 and 90% of isolates were inhibited were determined except for organisms with fewer than 10 strains tested, for which only the ranges are reported (Table 8).
# E. faecium = experiment: MIC against other microorganisms: E. faecium
# Clostridium sordellii = experiment: MIC against intestinal bacteria: Clostridium sordellii; assay type: cell-based; conditions: Clostridium sordellii (5)
# Procedure: as §1, §2, §3
# Clostridium spp. (all) = experiment: MIC against anaerobes: Clostridium spp. (all); assay type: cell-based
# Procedure: (§4) The in vitro activity of OPT-80 was determined against 350 anaerobes. The experimental procedure for which is outlined in Antimicrobial Agents and Chemotherapy, 2004, 48: 4430-4434, which is hereby incorporated by reference in its entirety.
# (§5) All organisms, including the 21 C. difficile strains, were separate isolates and not clonally related. All quality-control gram-negative and -positive strains recommended by NCCLS were included with each run: in every case, results (where available) were in range.
# Micromonas micros = experiment: MIC against anaerobes: Micromonas micros; assay type: cell-based; conditions: Micromonas micros (14)
# [2] = test system: All anaerobic gram-negative species; experiment: MIC against intestinal bacteria: all anaerobic gram-negative species; assay type: cell-based
# [3] = test system: Peptostreptococcus asaccharolyticus; experiment: MIC against anaerobes: Peptostreptococcus asaccharolyticus; assay type: cell-based; conditions: Peptostreptococcus asaccharolyticus (15)
# S. aureus = experiment: MIC against other microorganisms: S. aureus
# [4] = test system: Fusobacterium species, miscellaneous; experiment: MIC against anaerobes: Fusobacterium species, miscellaneous; assay type: cell-based; conditions: miscellaneous (14)
# Procedure: as §4, §5
# C. difficile = experiment: MIC versus C. difficile strains; conditions: Clostridioides difficile
# Clostridium tertium = experiment: MIC against anaerobes: Clostridium tertium; assay type: cell-based; conditions: Clostridium tertium (10)
# Clostridium perfringens = assay type: cell-based; conditions: Clostridium perfringens (14)
# Propionibacterium acnes = experiment: MIC against anaerobes: Propionibacterium acnes; assay type: cell-based; conditions: Propionibacterium acnes (20)
# [5] = test system: Bacteroides fragilis group spp.; experiment: MIC against intestinal bacteria: Bacteroides fragilis group; assay type: cell-based
# Clostridium innocuum = experiment: MIC against intestinal bacteria: Clostridium innocuum; assay type: cell-based; conditions: Clostridium innocuum (9)
# Procedure: as §1, §2, §3
# Clostridium difficile [6] = experiment: MIC against intestinal bacteria: Clostridium difficile; assay type: cell-based; conditions: Clostridium difficile (23)
# Procedure: as §1, §2, §3
# Enterococcus species = experiment: MIC against intestinal bacteria: Enterococcus species; assay type: cell-based; conditions: Enterococcus species (21)
# [7] = test system: Peptostreptococcus anaerobius; experiment: MIC against anaerobes: Peptostreptococcus anaerobius; assay type: cell-based; conditions: Peptostreptococcus anaerobius (15)
# Clostridium difficile [8] = experiment: MIC against anaerobes: Clostridium difficile; assay type: cell-based; conditions: Clostridium difficile (21)
# Procedure: as §4, §5
# [9] = test system: Streptococcus, formerly S. milleri group; experiment: MIC against intestinal bacteria: Streptococcus, formerly S. milleri group; assay type: cell-based
# Clostridium bifermentans = experiment: MIC against intestinal bacteria: Clostridium bifermentans; assay type: cell-based; conditions: Clostridium bifermentans (9)
# [10] = test system: Peptostreptococcus tetradius; experiment: MIC against anaerobes: Peptostreptococcus tetradius; assay type: cell-based; conditions: Peptostreptococcus tetradius (16)
# E. faecalis = experiment: MIC against other microorganisms: E. faecalis; conditions: Enterococcus faecalis
# All Clostridium species = experiment: MIC against intestinal bacteria: all Clostridium species; assay type: cell-based; conditions: All Clostridium species (107)
# [11] = test system: Staphylococcus aureus and Staphylococcus epidermidis; experiment: MIC against intestinal bacteria: Staphylococcus aureus and Staphylococcus epidermidis; assay type: cell-based; conditions: Staphylococcus aureus and Staphylococcus epidermidis (19)
# Bacteroides fragilis = experiment: MIC against anaerobes: Bacteroides fragilis; assay type: cell-based; conditions: Bacteroides fragilis (19)
# Procedure: as §4, §5
# [12] = test system: Prevotella/Porphyromonas species; experiment: MIC against anaerobes: Prevotella/Porphyromonas; assay type: cell-based; conditions: Prevotella/Porphyromonas species (42)
# Procedure: as §4, §5
# [13] = test system: Non-fragilis B. fragilis group species; experiment: MIC against anaerobes: non-fragilis B. fragilis group; assay type: cell-based; conditions: Bacteroides fragilis; Non-fragilis B. fragilis group species (38)
# Procedure: as §4, §5
smiles,measurement,setting,value
"CCc1c(Cl)c(O)c(Cl)c(O)c1C(=O)O[C@H]1[C@H](O)[C@H](OC)[C@H](OCC2=CC=CC[C@H](O)C(C)=C[C@H](CC)[C@@H](O[C@@H]3OC(C)(C)[C@@H](OC(=O)C(C)C)[C@H](O)[C@@H]3O)C(C)=CC(C)=CC[C@@H]([C@@H](C)O)OC2=O)O[C@@H]1C [R-Tiacumicin B, 3-[[[6-Deoxy-4-O-(3,5-dichloro-2-ethyl-4,6-dihydroxybenzoyl)-2-O-methyl-β-D-mannopyranosyl]oxy]-methyl]-12(R)-[[6-deoxy-5-C-methyl-4-O-(2-methyl-1-oxopropyl)-β-D-lyxo-hexopyranosyl]oxy]-11(S)-ethyl-8(S)-hydroxy-18(S)-(1(R)-hydroxyethyl)-9,13,15-trimethyloxacyclooctadeca-3,5,9,13,15-pentaene-2-one]",MIC range,[1],16 to 128 µg/mL
same,MIC,E. faecium; Enterococcus faecium,1 µg/mL
same,MIC,"E. faecium; Strain ID # 8, E. faecium Vanc. resistant",1 µg/mL
same,MIC range,Clostridium sordellii,0.06 µg/mL
same,MIC50,Clostridium spp. (all),< 0.016 µg/mL
same,MIC90,Clostridium spp. (all),0.06 µg/mL
same,MIC range,Micromonas micros,<0.016 to 0.06 µg/mL
same,MIC50,Micromonas micros; Parvimonas micra,0.03 µg/mL
same,MIC90,Micromonas micros; Parvimonas micra,0.06 µg/mL
same,MIC90,[2],> 1020 µg/mL
same,MIC50,[2]; All anaerobic gram-negative species (111),256 µg/mL
same,MIC50,[3]; Peptoniphilus asaccharolyticus,0.5 µg/mL
same,MIC90,[3]; Peptoniphilus asaccharolyticus,1 µg/mL
same,MIC range,[3],0.25 to 1.0 µg/mL
same,MIC,"S. aureus; Staphylococcus aureus, ATCC29213",4 µg/mL
same,MIC,"S. aureus; Staphylococcus aureus, MRSA",4 µg/mL
same,MIC,"S. aureus; Strain ID # 3, S. aureus, (MRSA)",4 µg/mL
same,MIC50,[4],> 128 µg/mL
same,MIC90,[4],> 128 µg/mL
same,MIC,C. difficile,0.125 µg/mL
same,MIC,C. difficile; ATCC9689,0.03 µg/mL
same,MIC,C. difficile; ATCC17857,0.03 µg/mL
same,MIC,C. difficile; ATCC43255,0.125 µg/mL
same,MIC50,Clostridium tertium,< 0.016 µg/mL
same,MIC90,Clostridium tertium,0.03 µg/mL
same,MIC range,Clostridium tertium,<0.016 to 0.06 µg/mL
same,MIC range,Clostridium perfringens,0.06 µg/mL
same,MIC50,Propionibacterium acnes; Cutibacterium acnes,4 µg/mL
same,MIC90,Propionibacterium acnes; Cutibacterium acnes,4 µg/mL
same,MIC range,Propionibacterium acnes,0.5 to 1.0 µg/mL
same,MIC90,[5]; Bacteroides fragilis,> 1020 µg/mL
same,MIC50,[5]; Bacteroides fragilis group spp. (50),256 µg/mL
same,MIC range,Clostridium innocuum,32 to 128 µg/mL
same,MIC50,Clostridium difficile [6]; Clostridioides difficile,0.12 µg/mL
same,MIC90,Clostridium difficile [6]; Clostridioides difficile,0.25 µg/mL
same,MIC range,Clostridium difficile [6],0.06 to 2 µg/mL
same,MIC50,Enterococcus species,8 µg/mL
same,MIC90,Enterococcus species,8 µg/mL
same,MIC range,Enterococcus species,2.0 to 16 µg/mL
same,MIC50,[7],< 0.016 µg/mL
same,MIC90,[7],< 0.016 µg/mL
same,MIC range,[7],<0.016 to 0.03 µg/mL
same,MIC50,Clostridium difficile [8]; Clostridioides difficile,< 0.016 µg/mL
same,MIC90,Clostridium difficile [8]; Clostridioides difficile,0.125 µg/mL
same,MIC range,Clostridium difficile [8],<0.016 to 0.25 µg/mL
same,MIC50,[9],32 µg/mL
same,MIC90,[9],32 µg/mL
same,MIC range,[9]; formerly S. milleri group (14),16 to 64 µg/mL
same,MIC range,Clostridium bifermentans,0.06 µg/mL
same,MIC50,[10]; Anaerococcus tetradius,1 µg/mL
same,MIC90,[10]; Anaerococcus tetradius,1 µg/mL
same,MIC range,[10],0.25 to 2.0 µg/mL
same,MIC,"E. faecalis; ATCC29212, Strain ID # 4, E. faecalis (ATCC 29212)",2 µg/mL
same,MIC,"E. faecalis; Strain ID # 5, E. faecalis Vanc. resistant",4 µg/mL
same,MIC,"E. faecalis; Strain ID # 6, E. faecalis Vanc. resistant",1 µg/mL
same,MIC50,All Clostridium species,0.062 µg/mL
same,MIC90,All Clostridium species,128 µg/mL
same,MIC50,[11],0.5 µg/mL
same,MIC90,[11],2 µg/mL
same,MIC range,[11],0.25 to 2 µg/mL
same,MIC50,Bacteroides fragilis,> 128 µg/mL
same,MIC90,Bacteroides fragilis,> 128 µg/mL
same,MIC50,[12],> 128 µg/mL
same,MIC90,[12],> 128 µg/mL
same,MIC50,[13],> 128 µg/mL
same,MIC90,[13],> 128 µg/mL

# Source: patent publication US8586551B2, “18-membered macrocycles and analogs thereof” (Optimer Pharmaceuticals, Inc., priority 2005, dated 2013)
